According to ChEMBL document CHEMBL5244207, “Phenanthrenes: A Promising Group of Plant Secondary Metabolites” (J Nat Prod, 2018):
Values after ≈ are worked out from the molar mass of the structure shown.

What was measured:
[1] = Hemolytic activity in human Neutrophil assessed as hemolysis rate at 10 uM relative to control; type: toxicity, cell-based; details: human neutrophils, read-out: Activity
[2] = Antioxidant activity assessed as DPPH radical scavenging activity incubated for 30 mins by spectrophotometric analysis; type: functional
RAW264.7 = assay: Antiinflammatory activity in mouse RAW264.7 cells assessed as reduction in LPS-induced nitric oxide production; type: functional, cell-based
[3] = Hemolytic activity in human Neutrophil at 10 uM relative to control; type: toxicity, cell-based
[4] = Toxicity in brine shrimp assessed as lethality; details: artemia salina
Rattus norvegicus [5] = assay: Anxiolytic activity in rat assessed as number of entries in open arm at 5 mg/kg by elevated plus maze test; type: functional
Rattus norvegicus [6] = assay: Anxiolytic activity in rat assessed as head tips at 5 mg/kg by elevated plus maze test; type: functional
Rattus norvegicus [7] = assay: Anxiolytic activity in rat assessed as increase in time spent in open arm at 5 mg/kg by elevated plus maze test; type: functional
BV-2 = assay: Antiinflammatory activity in mouse BV2 cells assessed as reduction in LPS-induced nitric oxide production; type: functional, cell-based
C6 = assay: Neuroprotective activity in rat C6 cells assessed as NGF secretion level; type: functional

C=Cc1cc(O)cc2ccc3c(C)c(O)ccc3c12
hemolysis at 10 µM [1]: 11.3%
IC50 [2]: 1.7 µM
IC50 (RAW264.7; Mus musculus, RAW264.7): 12.7 µM
IC50 (RAW264.7; raw264.7): 10.5 µM
Activity [3]: 5.3

O=P1(N(CCCl)CCCl)NCCCO1 (configuration not stated) [CYCLOPHOSPHAMIDE ANHYDROUS]
LC50 [4]: 16.4 µg/mL (≈ 62.8 µM)

C=Cc1c(C)c(O)cc2ccc3c(C)c(O)ccc3c12
Activity (Rattus norvegicus [5]): >6
Activity (Rattus norvegicus [6]): >80
Time (Rattus norvegicus [7]): 56.54 s
IC50 (RAW264.7; Mus musculus, RAW264.7): 15.6 µM

COc1cc2c(ccc3cc(OC)c(O)c(OC)c32)cc1O
IC50 (BV-2): 19.6 µM
Activity (C6): 162.4%
